Data set [1] relates to HBV. The data set can be described thus: In vitro antiviral assay: anti-HBV replication in HepAD38 cells (extracellular HBV DNA by QPCR). In kind it is cell-based, hepatitis B virus (genotype D, serotype ayw). As to conditions: Hepatitis B virus, HePAD38, 168 h, 7 days incubation, extracellular HBV DNA by QPCR, read-out: Anti-HBV EC50. The method in brief: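 Read-out is extracellular HBV DNA (copies/mL, QPCR standard curve) after 7-day exposure of tet-free HepAD38 cells to 10-fold dilutions from 1 μM down to 10 pM. Values normalised to DMSO vehicle; EC50 from 4-parameter nonlinear regression, with entecavir validating each run.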

Data set [2] in a line: In vitro cytotoxicity assay (MTT cell viability) in HepG2 cells. In kind it is cell-based, human. The following applies: human. The method in brief: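 CC50 was derived by 4-parameter fit of viability relative to vehicle controls, measured as MTT formazan absorbance at 492 nm after 3–4 h of reagent and DMSO solubilization. Before that, HepG2 cells seeded overnight at 20,000/well were incubated 7 days at 37°C with compound from 30 μM down to 1.0 nM in half-log steps.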

A word on the EC50: it is the concentration at which the effect is half-maximal. The term CC50 denotes the concentration giving 50% cytotoxicity. Read a high CC50 as better tolerance by the cells.

Some results are limits rather than exact numbers.

In the case of `Cc1c(C(=O)Nc2ccc(F)c(C#N)c2)c(C)n(C)c1C(=O)C(=O)NC1(C)CC(O)C1` (stereo not shown) [Example 83, N-(3-cyano-4-fluorophenyl)-5-(2-((3-hydroxy-1-methylcyclobutyl)amino)-2-oxoacetyl)-1,2,4-trimethyl-1H-pyrrole-3-carboxamide], the EC50 in data set [1] was under 0.05 µM. For the same compound, in data set [2], the half-maximal cytotoxic concentration (CC50) at 7 days is over 30 µM.
The corresponding values for `Cc1cc(NC(=O)c2c(C)c(C(=O)C(=O)NC3CCc4nnn(C)c4C3)n(C)c2C)ccc1F` (stereo not shown) [Example 85, N-(4-fluoro-3-methylphenyl)-1,2,4-trimethyl-5-(2-((1-methyl-4,5,6,7-tetrahydro-1H-benzo[d][1,2,3]triazol-6-yl)amino)-2-oxoacetyl)-1H-pyrrole-3-carboxamide] are under 0.05 µM and over 30 µM.
As to `CCc1c(C(=O)Nc2ccc(F)c(C)c2)c(C)n(C)c1C(=O)C(=O)N[C@H]1CC[C@@H](O)CC1` [Example 86, 4-ethyl-N-(4-fluoro-3-methylphenyl)-5-(2-(((1s,4s)-4-hydroxycyclohexyl)amino)-2-oxoacetyl)-1,2-dimethyl-1H-pyrrole-3-carboxamide], the EC50 in data set [1] was under 0.05 µM. For the same compound, in data set [2], the CC50 at 7 days was over 30 µM.
For `CCc1c(C(=O)Nc2ccc(F)c(C)c2)c(C)n(C)c1C(=O)C(=O)N[C@]1(C)C[C@H](O)C1` [Example 87, 4-ethyl-N-(4-fluoro-3-methylphenyl)-5-(2-(((1s,3s)-3-hydroxy-1-methylcyclobutyl)amino)-2-oxoacetyl)-1,2-dimethyl-1H-pyrrole-3-carboxamide], the EC50 in data set [1] was under 0.05 µM. The compound also gave a CC50 at 7 days in data set [2] of over 30 µM.
The corresponding values for `CCc1c(C(=O)Nc2ccc(F)c(C)c2)c(C)n(C)c1C(=O)C(=O)NCC(C)(C)O` [Example 88, 4-ethyl-N-(4-fluoro-3-methylphenyl)-5-(2-((2-hydroxy-2-methylpropyl)amino)-2-oxoacetyl)-1,2-dimethyl-1H-pyrrole-3-carboxamide] are 0.5 to 1 µM and over 30 µM.
On the same counts, the results for `CCc1c(C(=O)Nc2ccc(F)c(C)c2)c(C)n(C)c1C(=O)C(=O)N[C@H]1CC[C@@H](S(C)(=O)=O)CC1` [Example 89, 4-ethyl-N-(4-fluoro-3-methylphenyl)-1,2-dimethyl-5-(2-(((1s,4s)-4-(methylsulfonyl)cyclohexyl)amino)-2-oxoacetyl)-1H-pyrrole-3-carboxamide] are under 0.05 µM and over 30 µM.
The corresponding values for `CCc1c(C(=O)Nc2ccc(F)c(C)c2)c(C)n(C)c1C(=O)C(=O)N[C@H](C)C(F)(F)F` [Example 90, (R)-4-ethyl-N-(4-fluoro-3-methylphenyl)-1,2-dimethyl-5-(2-oxo-2-((1,1,1-trifluoropropan-2-yl)amino)acetyl)-1H-pyrrole-3-carboxamide] are under 0.05 µM and 5 to 30 µM.
In the case of `CCc1c(C(=O)Nc2ccc(F)c(C)c2)c(C)n(C)c1C(=O)C(=O)NC1CCN(c2cccnn2)CC1` [Example 91, 4-ethyl-N-(4-fluoro-3-methylphenyl)-1,2-dimethyl-5-(2-oxo-2-((1-(pyridazin-3-yl)piperidin-4-yl)amino)acetyl)-1H-pyrrole-3-carboxamide], the EC50 in data set [1] lay in the range of 0.05 to 0.499 µM. The compound further registered a CC50 at 7 days in data set [2] of over 30 µM.
On the same counts, the results for `Cc1cc(NC(=O)c2c(C(C)C)c(C(=O)C(=O)N[C@H]3CC[C@@H](O)CC3)n(C)c2C)ccc1F` [Example 92, N-(4-fluoro-3-methylphenyl)-5-(2-(((1s,4s)-4-hydroxycyclohexyl)amino)-2-oxoacetyl)-4-isopropyl-1,2-dimethyl-1H-pyrrole-3-carboxamide] are 0.05 to 0.499 µM and over 30 µM.
The corresponding values for `Cc1cc(NC(=O)c2c(C(C)C)c(C(=O)C(=O)N[C@]3(C)C[C@H](O)C3)n(C)c2C)ccc1F` [Example 93, N-(4-fluoro-3-methylphenyl)-5-(2-(((1s,3s)-3-hydroxy-1-methylcyclobutyl)amino)-2-oxoacetyl)-4-isopropyl-1,2-dimethyl-1H-pyrrole-3-carboxamide] are over 1 µM and over 30 µM.
The corresponding values for `Cc1cc(NC(=O)c2c(C(C)C)c(C(=O)C(=O)NCC(C)(C)O)n(C)c2C)ccc1F` [Example 94, N-(4-fluoro-3-methylphenyl)-5-(2-((2-hydroxy-2-methylpropyl)amino)-2-oxoacetyl)-4-isopropyl-1,2-dimethyl-1H-pyrrole-3-carboxamide] are 0.5 to 1 µM and over 30 µM.
Consider `Cc1cc(NC(=O)c2c(C(C)C)c(C(=O)C(=O)N[C@H]3CC[C@@H](S(C)(=O)=O)CC3)n(C)c2C)ccc1F` [Example 95, N-(4-fluoro-3-methylphenyl)-4-isopropyl-1,2-dimethyl-5-(2-(((1s,4s)-4-(methylsulfonyl)cyclohexyl)amino)-2-oxoacetyl)-1H-pyrrole-3-carboxamide], for which the EC50 in data set [1] is over 1 µM. This compound also returned a CC50 at 7 days in data set [2] of over 30 µM.
The corresponding values for `Cc1cc(NC(=O)c2c(C(C)C)c(C(=O)C(=O)N[C@H](C)C(F)(F)F)n(C)c2C)ccc1F` [Example 96, (R)-N-(4-fluoro-3-methylphenyl)-4-isopropyl-1,2-dimethyl-5-(2-oxo-2-((1,1,1-trifluoropropan-2-yl)amino)acetyl)-1H-pyrrole-3-carboxamide] are over 1 µM and over 30 µM.
The corresponding values for `Cc1cc(NC(=O)c2c(C3CC3)c(C(=O)C(=O)N[C@H]3CC[C@@H](O)CC3)n(C)c2C)ccc1F` [Example 97, 4-cyclopropyl-N-(4-fluoro-3-methylphenyl)-5-(2-(((1s,4s)-4-hydroxycyclohexyl)amino)-2-oxoacetyl)-1,2-dimethyl-1H-pyrrole-3-carboxamide] are 0.5 to 1 µM and over 30 µM.
Turning to `Cc1cc(NC(=O)c2c(C3CC3)c(C(=O)C(=O)N[C@]3(C)C[C@H](O)C3)n(C)c2C)ccc1F` [Example 98, 4-cyclopropyl-N-(4-fluoro-3-methylphenyl)-5-(2-(((1s,3s)-3-hydroxy-1-methylcyclobutyl)amino)-2-oxoacetyl)-1,2-dimethyl-1H-pyrrole-3-carboxamide], the EC50 in data set [1] fell in the range of 0.05 to 0.499 µM. In data set [2], this compound displayed a CC50 at 7 days of over 30 µM.
Consider `Cc1cc(NC(=O)c2c(C3CC3)c(C(=O)C(=O)NCC(C)(C)O)n(C)c2C)ccc1F` [Example 99, 4-cyclopropyl-N-(4-fluoro-3-methylphenyl)-5-(2-((2-hydroxy-2-methylpropyl)amino)-2-oxoacetyl)-1,2-dimethyl-1H-pyrrole-3-carboxamide], for which the EC50 in data set [1] was over 1 µM. The compound further came in with a cytotoxic concentration (CC50) at 7 days in data set [2] of over 30 µM.
The corresponding values for `Cc1cc(NC(=O)c2c(C3CC3)c(C(=O)C(=O)N[C@H]3CC[C@@H](S(C)(=O)=O)CC3)n(C)c2C)ccc1F` [Example 100, 4-cyclopropyl-N-(4-fluoro-3-methylphenyl)-1,2-dimethyl-5-(2-(((1s,4s)-4-(methylsulfonyl)cyclohexyl)amino)-2-oxoacetyl)-1H-pyrrole-3-carboxamide] are under 0.05 µM and over 30 µM.
The corresponding values for `Cc1cc(NC(=O)c2c(C3CC3)c(C(=O)C(=O)N[C@H](C)C(F)(F)F)n(C)c2C)ccc1F` [Example 101, (R)-4-cyclopropyl-N-(4-fluoro-3-methylphenyl)-1,2-dimethyl-5-(2-oxo-2-((1,1,1-trifluoropropan-2-yl)amino)acetyl)-1H-pyrrole-3-carboxamide] are under 0.05 µM and over 30 µM.
The corresponding values for `Cc1cc(NC(=O)c2c(C3CC3)c(C(=O)C(=O)N[C@]3(C)CC[C@@H](O)CC3)n(C)c2C)ccc1F` [Example 102, 4-cyclopropyl-N-(4-fluoro-3-methylphenyl)-5-(2-(((1r,4r)-4-hydroxy-1-methylcyclohexyl)amino)-2-oxoacetyl)-1,2-dimethyl-1H-pyrrole-3-carboxamide] are under 0.05 µM and over 30 µM.
As to `Cc1cc(NC(=O)c2c(C3CC3)c(C(=O)C(=O)NC3CCN(c4cccnn4)CC3)n(C)c2C)ccc1F` [Example 103, 4-cyclopropyl-N-(4-fluoro-3-methylphenyl)-1,2-dimethyl-5-(2-oxo-2-((1-(pyridazin-3-yl)piperidin-4-yl)amino)acetyl)-1H-pyrrole-3-carboxamide], in data set [1], the EC50 fell in the range of 0.5 to 1 µM. This compound also showed a CC50 at 7 days in data set [2] of over 30 µM.
The corresponding values for `CCc1c(C(=O)Nc2ccc(F)c(C)c2)c(C)c(C(=O)C(=O)N[C@]2(C)C[C@H](O)C2)n1C` [Example 104, 2-ethyl-N-(4-fluoro-3-methylphenyl)-5-(2-(((1s,3s)-3-hydroxy-1-methylcyclobutyl)amino)-2-oxoacetyl)-1,4-dimethyl-1H-pyrrole-3-carboxamide] are under 0.05 µM and over 30 µM.
On the same counts, the results for `CCc1c(C(=O)Nc2ccc(F)c(C)c2)c(C)c(C(=O)C(=O)NCC(C)(C)O)n1C` [Example 105, 2-ethyl-N-(4-fluoro-3-methylphenyl)-5-(2-((2-hydroxy-2-methylpropyl)amino)-2-oxoacetyl)-1,4-dimethyl-1H-pyrrole-3-carboxamide] are under 0.05 µM and over 30 µM.
The corresponding values for `CCc1c(C(=O)Nc2ccc(F)c(C)c2)c(C)c(C(=O)C(=O)N[C@H]2CC[C@@H](S(C)(=O)=O)CC2)n1C` [Example 106, 2-ethyl-N-(4-fluoro-3-methylphenyl)-1,4-dimethyl-5-(2-(((1s,4s)-4-(methylsulfonyl)cyclohexyl)amino)-2-oxoacetyl)-1H-pyrrole-3-carboxamide] are under 0.05 µM and over 30 µM.

The values above are taken from patent publication US20230107941A1, “HEPATITIS B CAPSID ASSEMBLY MODULATORS” (Venatorx Pharmaceuticals, Inc., priority 2019, published 2023).
